Patent US20210255193A1, “LYSINE REACTIVE PROBES AND USES THEREOF” (The Scripps Research Institute, priority 2017, published 2021)

Key:
Assay in all cases: competitive isoTOP-ABPP
Assay type in all cases: binding
[1] = target: T1, GLOD4 Glyoxalase domain-containing protein 4 (Homo sapiens, UniProt Q9HC38); details: 50 uM, in vitro; for isoTOP-ABPP reactivity ratio at lysine Q9HC38_K305: 231 sol; for isoTOP-ABPP ratio (R) at liganded lysine Q9HC38_K305: sol, 231
T1 construct: endogenous in cells; host or cells: MDA-MB-231 (soluble fraction of lysate)
T1 sequence (Q9HC38 1-313): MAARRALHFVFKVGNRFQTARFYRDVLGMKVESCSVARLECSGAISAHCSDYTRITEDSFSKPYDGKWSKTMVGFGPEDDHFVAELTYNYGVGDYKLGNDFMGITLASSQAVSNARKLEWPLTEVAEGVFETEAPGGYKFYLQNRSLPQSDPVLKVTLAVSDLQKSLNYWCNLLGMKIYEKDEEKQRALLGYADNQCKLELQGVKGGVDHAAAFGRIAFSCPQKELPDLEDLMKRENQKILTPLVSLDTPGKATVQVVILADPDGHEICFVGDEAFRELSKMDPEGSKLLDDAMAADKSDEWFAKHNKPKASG
Experimental: (§1) In vitro covalent fragment treatment for isoTOP-ABPP. All compounds were made up as solutions in DMSO (100×) and were used at a final concentration of 50 μM for activated esters and 100 μM for guanidinylating agents. For each profiling sample, 0.5 ml of lysate was treated with 5 μl of the 100× compound stock solution or 5 μl of DMSO. Samples were treated with activated esters for
(§2) STP-alkyne labeling and click chemistry. For concentration-dependent reactivity measurements by isoTOP-ABPP, 0.5 ml proteome aliquots were treated at ambient temperature with 1 mM STP-alkyne 1 (5 μl of 100 mM stock in DMSO) and 0.1 mM STP alkyne 1 (5 μl of 10 mM stock in DMSO), respectively. For competitive isoTOP-ABPP, after in vitro fragment treatment (detailed above), the samples were labeled for 1 h at ambient temperature with 0.1 mM STP-alkyne 1 (5 μl of 10 mM stock in DMSO). Samples were conjugated by copper-mediated azide-alkyne cycloaddition (CuAAC) to either the light (1 mM STP-alkyne or fragment treated) or heavy (0.1 mM STP-alkyne or DMSO treated) TEV tags (10 μl of 5 mM stocks in DMSO, final concentration=100 μM) using tris(2-carboxyethyl)phosphine hydrochloride
(§3) R value calculation and processing. The ratios of light and heavy MS1 peaks for each unique peptide were quantified with a CIMAGE software using default parameters (3 MS1 acquisitions per peak and signal to noise threshold set to 2.5). For reactivity measurements by isoTOP-ABPP, the R value was calculated from the ratio of MS1 peak areas, comparing the 1 mM STP alkyne sample (light TEV tag) with the 0.1 mM STP alkyne sample (heavy TEV tag). For competitive isoTOP-ABPP, the R value was calculated from the ratio of MS1 peak areas, comparing the DMSO treated sample (heavy TEV tag) with the compound treated sample (light TEV tag). […] Ratios for unique peptide entries are calculated for each experiment; overlapping peptides with the same modified lysine (for example, different charge states, MudPIT chromatographic steps or tryptic termini) are grouped together and the median ratio is reported as the final ratio (R). The peptide ratios reported by CIMAGE were further filtered to ensure the removal or correction of low-quality ratios in each individual data set. The quality filters applied were the following: removal of half tryptic peptides; for ratios with high standard deviations from the median (90% of the median or above) the lowest ratio was taken instead of the median; removal of peptides with R=20 and only a single MS2 event triggered during the elution of the parent ion; manual annotation of all the peptides with ratios of 20, removing any peptides with low quality elution profiles that remained after the previous curation steps (only done for competitive isoTOP-ABPP).
(§4) Cross-data processing for fragment screening. For compound treated samples, biological replicates of the same condition were averaged, if the standard deviation was below 60% of the mean; otherwise, for lysines with at least one R value <4 for a particular compound, the lowest value of the ratio set was taken. For lysines, where all R values for a particular compound were ≥4, the average was reported. For peptides containing several possible modified lysines, the lysine with the highest number of quantification events was used for analysis and the remaining, redundant peptides were reported as alternative modification sites. Peptides included in the aggregate dataset (those used for further bioinformatics and statistical analyses) were required to have been quantified in 2 experiments for competitive isoTOP-ABPP. Lysines were categorized as liganded, if they had at least one ratio R≥4 (hit fragments). For liganded lysines with R=20 for all liganding events, lysines were required to have been quantified with R=20 in two separate experiments and were further required to have been quantified with R<20 in one additional experiment.

[2] = target: T2, GLUD1 Glutamate dehydrogenase 1, mitochondrial (Homo sapiens, UniProt P00367); details: 50 uM, in vitro; for isoTOP-ABPP reactivity ratio at lysine P00367_K480: 231 sol; for isoTOP-ABPP ratio (R) at liganded lysine P00367_K480: sol, 231
T2 construct: isoTOP-ABPP experiments performed in cell lysates (in vitro); endogenous in cells; host or cells: MDA-MB-231 soluble lysate
Experimental: as §1, §2, §3, §4

[3] = target: T3, MRPS24 28S ribosomal protein S24, mitochondrial (Homo sapiens, UniProt Q96EL2); details: 50 uM, in vitro; for isoTOP-ABPP reactivity ratio at lysine Q96EL2_K94: 231 sol; for isoTOP-ABPP ratio (R) at liganded lysine Q96EL2_K94: sol, 231
T3 construct: isoTOP-ABPP experiments performed in cell lysates (in vitro); endogenous in cells; host or cells: soluble proteome of human cancer cell lines (MDA-MB-231; Ramos and Jurkat also prepared)
Experimental: as §1, §2, §3, §4

[4] = target: T4, TRAP1 Heat shock protein 75 kDa, mitochondrial (Homo sapiens, UniProt Q12931); details: 50 uM, in vitro; for isoTOP-ABPP reactivity ratio at lysine Q12931_K699: 231 sol; for isoTOP-ABPP ratio (R) at liganded lysine Q12931_K699: sol, 231
T4 construct: isoTOP-ABPP experiments performed in cell lysates (in vitro); endogenous in cells; host or cells: soluble proteome of human cancer cell lines (MDA-MB-231, Ramos, Jurkat)
T4 sequence (Q12931 60-704): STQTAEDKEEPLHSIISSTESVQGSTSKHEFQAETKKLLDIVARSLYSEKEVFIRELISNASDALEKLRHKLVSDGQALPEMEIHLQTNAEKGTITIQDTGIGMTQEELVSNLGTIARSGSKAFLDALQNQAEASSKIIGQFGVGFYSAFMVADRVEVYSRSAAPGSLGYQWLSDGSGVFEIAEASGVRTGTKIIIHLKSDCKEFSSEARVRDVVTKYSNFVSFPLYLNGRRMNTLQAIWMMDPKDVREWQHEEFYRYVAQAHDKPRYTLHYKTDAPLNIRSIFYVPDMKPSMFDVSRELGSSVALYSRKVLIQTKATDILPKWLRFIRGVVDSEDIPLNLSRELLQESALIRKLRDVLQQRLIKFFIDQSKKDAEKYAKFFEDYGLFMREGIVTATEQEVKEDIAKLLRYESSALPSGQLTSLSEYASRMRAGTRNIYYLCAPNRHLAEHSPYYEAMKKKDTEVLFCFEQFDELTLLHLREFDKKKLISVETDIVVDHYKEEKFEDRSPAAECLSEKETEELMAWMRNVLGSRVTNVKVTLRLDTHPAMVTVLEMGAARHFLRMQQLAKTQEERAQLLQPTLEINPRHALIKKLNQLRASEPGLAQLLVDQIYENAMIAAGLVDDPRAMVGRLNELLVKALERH
Experimental: as §1, §2, §3, §4

[5] = target: T5, XRCC6 X-ray repair cross-complementing protein 6 (Homo sapiens, UniProt P12956); details: 50 uM, in vitro; for isoTOP-ABPP reactivity ratio at lysine P12956_K351: 231 sol; for isoTOP-ABPP ratio (R) at liganded lysine P12956_K351: sol, 231
T5 construct: isoTOP-ABPP experiments performed in cell lysates (in vitro); endogenous in cells; host or cells: soluble proteome of human cancer cell lines (MDA-MB-231; Ramos and Jurkat also prepared)
Experimental: as §1, §2, §3, §4

T2 sequence (P00367 54-558): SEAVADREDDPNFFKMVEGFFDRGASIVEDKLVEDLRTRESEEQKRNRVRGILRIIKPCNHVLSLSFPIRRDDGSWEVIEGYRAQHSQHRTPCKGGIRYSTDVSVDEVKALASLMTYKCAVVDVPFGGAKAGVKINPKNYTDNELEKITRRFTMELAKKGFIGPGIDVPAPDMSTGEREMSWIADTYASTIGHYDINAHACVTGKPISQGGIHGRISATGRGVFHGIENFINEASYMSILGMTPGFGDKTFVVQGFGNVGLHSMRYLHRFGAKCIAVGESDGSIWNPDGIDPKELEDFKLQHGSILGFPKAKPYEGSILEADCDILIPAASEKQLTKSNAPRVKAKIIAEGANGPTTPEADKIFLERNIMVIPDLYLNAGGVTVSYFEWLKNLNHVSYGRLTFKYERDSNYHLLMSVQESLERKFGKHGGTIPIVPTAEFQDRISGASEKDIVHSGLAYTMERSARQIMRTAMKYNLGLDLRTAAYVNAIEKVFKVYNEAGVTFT
T5 sequence (P12956 2-609 limits assumed): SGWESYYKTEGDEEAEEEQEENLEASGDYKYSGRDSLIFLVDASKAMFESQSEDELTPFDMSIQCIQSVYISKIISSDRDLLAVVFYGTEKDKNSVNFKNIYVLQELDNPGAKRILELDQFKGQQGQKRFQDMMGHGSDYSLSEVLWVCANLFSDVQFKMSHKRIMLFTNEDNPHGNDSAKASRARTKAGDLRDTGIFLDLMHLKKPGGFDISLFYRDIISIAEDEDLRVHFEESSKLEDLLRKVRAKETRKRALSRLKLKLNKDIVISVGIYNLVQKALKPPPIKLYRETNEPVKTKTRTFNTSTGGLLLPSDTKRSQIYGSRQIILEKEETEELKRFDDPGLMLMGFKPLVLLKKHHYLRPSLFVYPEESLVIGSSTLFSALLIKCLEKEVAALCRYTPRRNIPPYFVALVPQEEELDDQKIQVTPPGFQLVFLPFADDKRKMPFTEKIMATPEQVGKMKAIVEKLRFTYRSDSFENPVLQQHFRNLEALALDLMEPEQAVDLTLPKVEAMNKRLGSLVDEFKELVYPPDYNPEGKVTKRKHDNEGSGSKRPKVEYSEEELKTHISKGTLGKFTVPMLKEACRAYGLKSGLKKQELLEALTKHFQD
T5 sequence (P13010 2-732 partner limits assumed): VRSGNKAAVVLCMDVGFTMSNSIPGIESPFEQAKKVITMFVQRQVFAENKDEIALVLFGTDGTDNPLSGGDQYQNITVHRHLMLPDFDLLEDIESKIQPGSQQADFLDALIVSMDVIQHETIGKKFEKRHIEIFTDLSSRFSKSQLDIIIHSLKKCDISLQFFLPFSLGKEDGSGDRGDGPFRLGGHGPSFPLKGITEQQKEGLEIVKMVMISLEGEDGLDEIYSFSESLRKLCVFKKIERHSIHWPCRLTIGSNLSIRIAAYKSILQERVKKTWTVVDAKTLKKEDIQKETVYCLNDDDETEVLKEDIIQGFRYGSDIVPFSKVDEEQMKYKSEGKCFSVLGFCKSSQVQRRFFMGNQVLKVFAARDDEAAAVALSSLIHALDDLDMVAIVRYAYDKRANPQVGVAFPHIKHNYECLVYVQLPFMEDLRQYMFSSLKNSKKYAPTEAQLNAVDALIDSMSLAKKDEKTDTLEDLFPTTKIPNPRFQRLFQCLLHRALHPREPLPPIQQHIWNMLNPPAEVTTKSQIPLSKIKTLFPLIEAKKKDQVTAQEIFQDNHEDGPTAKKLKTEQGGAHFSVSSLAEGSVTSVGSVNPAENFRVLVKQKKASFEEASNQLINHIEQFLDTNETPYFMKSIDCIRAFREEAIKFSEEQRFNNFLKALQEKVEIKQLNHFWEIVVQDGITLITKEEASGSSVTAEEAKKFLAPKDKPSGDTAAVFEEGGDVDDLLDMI

Row | isoTOP-ABPP reactivity ratio at lysine Q9HC38_K305 [1] | isoTOP-ABPP reactivity ratio at lysine P00367_K480 [2] | isoTOP-ABPP reactivity ratio at lysine Q96EL2_K94 [3] | isoTOP-ABPP reactivity ratio at lysine Q12931_K699 [4] | isoTOP-ABPP reactivity ratio at lysine P12956_K351 [5] | Compound | isoTOP-ABPP ratio (R) at liganded lysine Q9HC38_K305 [1] | isoTOP-ABPP ratio (R) at liganded lysine P00367_K480 [2] | isoTOP-ABPP ratio (R) at liganded lysine Q96EL2_K94 [3] | isoTOP-ABPP ratio (R) at liganded lysine Q12931_K699 [4] | isoTOP-ABPP ratio (R) at liganded lysine P12956_K351 [5]
1 | 1.5 | 2.0 | 1.5 | 0.9 | 1.3 | O=C(Oc1c(F)c(F)c(F)c(F)c1F)C1CCN(C(=O)OCc2ccccc2)CC1 [fragment 24, 1-Benzyl 4-(pentafluorophenyl) piperidine-1,4-dicarboxylate] | – | – | – | – | –
2 | 0.4 | 1.2 | 1.3 | 0.9 | 1.6 | O=C(Oc1c(F)c(F)c(F)c(F)c1F)c1ccc2ccccc2n1 [fragment 25, Pentafluorophenyl quinoline-2-carboxylate] | – | – | – | – | –
3 | 0.5 | 2.0 | 2.0 | 0.7 | 3.1 | O=C(CN1C(=O)c2ccccc2C1=O)Oc1c(F)c(F)c(F)c(F)c1F [fragment 27, Pentafluorophenyl 2-(1,3-dioxoisoindolin-2-yl)acetate] | – | – | – | – | –
4 | 1.0 | 1.0 | 1.0 | 0.9 | 1.9 | CCn1cc(C(=O)Oc2c(F)c(F)c(F)c(F)c2F)c(=O)c2ccc(C)nc21 [fragment 28, Pentafluorophenyl 1-ethyl-7-methyl-4-oxo-1,4-dihydro-1,8-naphthyridine-3-carboxylate] | – | – | – | – | –
5 | – | – | – | – | – | O=C(Oc1ccc([N+](=O)[O-])cc1[N+](=O)[O-])C1CCN(C(=O)OCc2ccccc2)CC1 [fragment 34, 1-Benzyl 4-(2,4-dinitrophenyl) piperidine-1,4-dicarboxylate] | 20.0 | 1.3 | 1.4 | 1.8 | 1.6
6 | – | – | – | – | – | O=C(Oc1ccc([N+](=O)[O-])cc1[N+](=O)[O-])c1ccc2ccccc2n1 [fragment 35, 2,4-Dinitrophenyl quinoline-2-carboxylate] | 0.4 | 1.8 | 1.3 | 0.9 | 1.5
7 | – | – | – | – | – | O=C(Oc1ccc([N+](=O)[O-])cc1[N+](=O)[O-])c1ccc(-c2ccccc2)cc1 [fragment 37, 2,4-Dinitrophenyl [1,1′-biphenyl]-4-carboxylate] | 0.6 | 1.1 | 0.9 | 0.9 | 1.3
8 | – | – | – | – | – | O=C(CC12CC3CC(CC(C3)C1)C2)Oc1ccc([N+](=O)[O-])cc1[N+](=O)[O-] [fragment 38, 2,4-Dinitrophenyl 2-(adamantan-1-yl)acetate] | 20.0 | 1.3 | 3.1 | 1.4 | 3.3
9 | – | – | – | – | – | O=C(Oc1ccc([N+](=O)[O-])cc1[N+](=O)[O-])c1ccc(Oc2ccccc2)cc1 [fragment 39, 2,4-Dinitrophenyl 4-phenoxybenzoate] | 0.8 | 1.0 | 1.2 | 0.9 | 1.6
10 | – | – | – | – | – | CC(C)(C)OC(=O)NCCCC(=O)Oc1ccc([N+](=O)[O-])cc1[N+](=O)[O-] [fragment 41, 2,4-Dinitrophenyl 4-((tert-butoxycarbonyl)amino)butanoate] | 20.0 | 3.7 | 1.3 | 1.3 | 1.6

Row | Compound | isoTOP-ABPP reactivity ratio at lysine Q9HC38_K305 [1] | isoTOP-ABPP reactivity ratio at lysine P00367_K480 [2] | isoTOP-ABPP reactivity ratio at lysine Q96EL2_K94 [3] | isoTOP-ABPP reactivity ratio at lysine Q12931_K699 [4] | isoTOP-ABPP reactivity ratio at lysine P12956_K351 [5] | isoTOP-ABPP ratio (R) at liganded lysine Q9HC38_K305 [1] | isoTOP-ABPP ratio (R) at liganded lysine P00367_K480 [2] | isoTOP-ABPP ratio (R) at liganded lysine Q96EL2_K94 [3] | isoTOP-ABPP ratio (R) at liganded lysine Q12931_K699 [4] | isoTOP-ABPP ratio (R) at liganded lysine P12956_K351 [5]
11 | O=C(CCc1cn(-c2ccccc2)nc1-c1ccccc1)Oc1ccc([N+](=O)[O-])cc1[N+](=O)[O-] [fragment 29, 2,4-Dinitrophenyl 3-(1,3-diphenyl-1H-pyrazol-4-yl)propanoate] | 0.9 | 1.9 | 2.2 | 2.2 | 3.2 | – | – | – | – | –
12 | O=C(Oc1ccc([N+](=O)[O-])cc1[N+](=O)[O-])c1cc(C(F)(F)F)cc(C(F)(F)F)c1 [fragment 31, 2,4-Dinitrophenyl 3,5-bis(trifluoromethyl)benzoate] | 0.5 | 1.3 | 1.6 | 1.0 | 2.6 | – | – | – | – | –
13 | COc1cc(CCC(=O)Oc2ccc([N+](=O)[O-])cc2[N+](=O)[O-])cc(OC)c1OC [fragment 33, 2,4-Dinitrophenyl 3-(3,4,5-trimethoxyphenyl)propanoate] | 0.4 | 6.2 | 1.4 | 1.5 | 2.5 | – | – | – | – | –
